From patent publication US9200008B2 (ASKA PHARMACEUTICAL CO., LTD., priority 2010, dated 2015) come the findings set out here.

The experiment relates to Human prostate cancer cell lines (PC-3 cells). Description: Measurement of cell death-inducing activity (Test Example 1). The class given is cell-based. The note with it: PC-3, 48 h, 48 hours after addition, tested at 10, 1, 0.1, 0.025 and 0.00625 μmol/L, qualitative evaluation of 10 fields, read-out: Concentration showing the cell death-inducing activity (cell death-inducing rate not less than 40%). In a few lines: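 Compound treatment lasted 48 h at 10 to 0.00625 μmol/L (five levels, DMSO as control) on PC-3 cells pre-cultured 48 h at 37 °C, 5% CO2 after seeding at 1×10^5 cells/well. A cell death-inducing rate of 40% or more counted as active.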
Take `Cc1cc(/C=N/NC(=O)c2cc(-c3ccc(Cl)cc3)oc2C)cc(C)c1O` [Example 23-167, 5-(4-Chlorophenyl)-2-methylfuran-3-carboxylic acid [1-(4-hydroxy-3,5-dimethylphenyl)methylidene]hydrazide]: the minimal effective concentration is 1 µM.
As for `COc1ccc(CN(C)NC(=O)c2sc(-c3ccc(Cl)cc3C)nc2C)cc1O` [Example 16-25], the minimal effective concentration stood at 0.1 µM.
The same measure for `Cc1cccnc1-c1nc(C)c(NC(=O)OCc2ccc3c(c2)ncn3C)s1` [Example 9-195]: 10 µM; for `Cc1ccc(-c2cc(NC(=O)OCc3ccc4c(c3)nc3n4CCCC3)n(C)n2)c(C)c1` [Example 9-271]: 0.1 µM.
On to `CCn1ncc2cc(NC(=O)OCc3sc(-c4ccc(F)cc4C)nc3C)ccc21` [Example 13-44], for which the minimal effective concentration stood at 0.1 µM.
As for `COc1cc(C)ccc1-c1nc(C)c(NC(=O)OCc2ccc3c(c2)nc2n3CCC(O)C2)s1` (stereo not drawn) [Example 9-342], the minimal effective concentration came out at 1 µM.
In the case of `CCn1nc(-c2ccc(F)cc2OC)cc1COC(=O)Nc1ccc2c(c1)ncn2CC` [Example 13-83] it was 0.025 µM.
In the case of `CCn1cnc2cc(COC(=O)Nc3cc(-c4ccc(C)cc4OC)nn3C)ccc21` [Example 9-228] it was 0.00625 µM.
In the case of `COc1cc(C)ccc1-c1cc(NC(=O)OCc2ccc3c(c2)nc2n3CCCC2)n(C)n1` [Example 9-269], the minimal effective concentration was 0.1 µM.
In the case of `Cc1ccc(-c2nc(C)c(NC(=O)OCc3ccc4c(c3)nc3n4C(C)CCC3)s2)c(C)c1` (stereo not drawn) [Example 9-118] it was 10 µM; in that of `CCn1cnc2cc(NC(=O)OCc3sc(-c4ccc(Cl)cc4C)nc3C)ccc21` [Example 13-17], 0.025 µM; in that of `COc1cc(C)ccc1-c1cc(NC(=O)OCc2ccc3c(cnn3C)c2)n(C)n1` [Example 9-283], 0.025 µM.
`COc1cc(Cl)ccc1-c1nc(C)c(CC(=O)N/N=C/c2cc(C)c(O)c(C)c2)s1` [Example 29-2, [2-(4-Chloro-2-methoxyphenyl)-4-methylthiazol-5-yl]acetic acid[1-(4-hydroxy-3,5-dimethylphenyl)methylidene]hydrazide]: the minimal effective concentration turned out to be 1 µM.
For the molecule `COc1cc(F)ccc1-c1nc(C)c(NC(=O)OCc2ccc3c(c2)ncn3C(C)C)s1` [Example 9-70], the minimal effective concentration was 0.1 µM.
In the case of `COc1ccc(/C=N/NC(=O)c2sc(-c3ccccn3)nc2C)cc1O` [Example 23-28] it was 1 µM; in that of `CCn1nc(-c2ccc(F)cc2OC)cc1NC(=O)OCc1ccc2c(c1)ncn2C` [Example 9-218], 0.025 µM; in that of `CCc1nc(-c2ccc(C)cc2C)sc1NC(=O)OCc1ccc2c(c1)nc1n2CCC1` [Example 9-350], 0.1 µM.
The same measure for `CCn1cnc2cc(COC(=O)Nc3cc(-c4ccc(F)cc4OC)nn3C)ccc21` [Example 9-219]: 0.025 µM.
Turning to `CCn1nc(-c2ccc(F)cc2OC)cc1COC(=O)Nc1ccc2c(c1)nc1n2CCC1` [Example 13-107], the minimal effective concentration came to 0.025 µM.
The same measure for `COc1ccc(CN(C)NC(=O)c2cc(-c3ccc(Cl)cc3OC)n[nH]2)cc1` [Example 18-1, 5-(4-Chloro-2-methoxyphenyl)-2H-pyrazole-3-carboxylic acid N′-(4-methoxybenzyl)-N′-methyl hydrazide]: 1 µM; for `CCc1nc(-c2ccc(F)cc2C)sc1NC(=O)OCc1ccc2nn(C)cc2c1` [Example 9-363]: 1 µM; for `Cc1nc(-c2ccc3c(c2)CCO3)sc1NC(=O)OCc1ccc2c(c1)ncn2C` [Example 9-50]: 10 µM.
Regarding `Cc1cc(Cl)ccc1-c1nc(C)c(NC(=O)OCc2ccc3c(c2)nc(C)n3C)s1` [Example 9-81], the minimal effective concentration worked out at 0.025 µM.
Turning to `Cc1cccc(-c2nc(C)c(C(=O)N/N=C/c3ccc4c(c3)OCO4)s2)c1C` [Example 23-43], the minimal effective concentration was 1 µM.
`Cc1cc(Cl)ccc1-c1nc(C)c(C(=O)NNCc2ccc3c(ccn3C)c2)s1` [Example 17-1]: the minimal effective concentration worked out at 0.1 µM.
For `COc1cc(/C=N/NC(=O)c2sc(-c3ccccc3Cl)nc2C)cc(O)c1OC` [Example 23-5], the minimal effective concentration is 10 µM.
In the case of `CCn1nc(-c2ccc(C)cc2C)cc1NC(=O)OCc1ccc2c(c1)ncn2C` [Example 9-234] it was 0.025 µM.
In the case of `CCn1nc(-c2ccc(C)cc2C)cc1NC(=O)OCc1ccc2c(c1)nc(C)n2C` [Example 9-240] it was 1 µM; in that of `CCn1ncc2cc(NC(=O)OCc3sc(-c4ccc(C)cc4C)nc3C)ccc21` [Example 13-45], 0.1 µM.
As for `COc1cc(Cl)ccc1-c1nc(C)c(NC(=O)OCc2ccc3sc(C)nc3c2)s1` [Example 37-1, [2-(4-Chloro-2-methoxyphenyl)-4-methylthiazol-5-yl]carbamic acid 2-methylbenzothiazol-5-ylmethyl ester], the minimal effective concentration was found to be 0.1 µM.
Regarding `COc1ccccc1-c1nc(C)c(NC(=O)OCc2ccc3c(c2)ncn3C)s1` [Example 9-37], the minimal effective concentration came out at 0.025 µM.
In the case of `COc1cc(C)ccc1-c1nc(C)c(NC(=O)OCc2ccc3c(c2)nc2n3CCC(C)C2)s1` (stereo not drawn) [Example 9-121], the minimal effective concentration amounted to 1 µM.
With `CCN(Cc1ccc(OC)cc1)NC(=O)c1sc(-c2ccc(Cl)cc2OC)nc1C` [Example 16-13], the minimal effective concentration worked out at 0.1 µM.
The same measure for `COc1ccc(/C=N/NC(=O)c2sc(-c3csc4ccccc34)nc2C)cc1O` [Example 23-38]: 1 µM; for `CCc1nc(-c2ccc(C)cc2C)sc1NC(=O)OCc1ccc2c(c1)nc1n2CCCC1` [Example 9-354]: 1 µM.
In the case of `Cc1ccc(-c2cc(NC(=O)OCc3ccc4c(c3)ncn4C)n(C)n2)c(C)c1` [Example 9-233] it was 0.00625 µM.
As for `Cc1ccc(-c2nc(C)c(NC(=O)OCc3ccc4sc(C)nc4c3)s2)c(C)c1` [Example 37-3], the minimal effective concentration was found to be 1 µM.
`Cc1cc(/C=N/NC(=O)c2sc(-c3ccc(Cl)cc3)nc2C(C)(C)C)cc(C)c1O` [Example 23-21]: the minimal effective concentration was 10 µM.
On to `CCn1nnc2cc(COC(=O)Nc3sc(-c4ccc(F)cc4C)nc3C)ccc21` [Example 9-27], for which the minimal effective concentration came out at 0.025 µM.
On to `COc1ccccc1-c1nc(C)c(C(=O)N/N=C/c2ccc3c(c2)CCO3)s1` [Example 23-153], for which the minimal effective concentration turned out to be 0.1 µM.
In the case of `COc1ccc(/C=N/NC(=O)c2sc(-c3ccc(Cl)cc3C)nc2C)cc1O` [Example 23-46] it was 0.025 µM.
For `CCn1ncc2cc(COC(=O)Nc3sc(-c4ccc(OC)cc4OC)nc3C)ccc21` [Example 9-138], the minimal effective concentration is 0.025 µM.
Regarding `COc1ccccc1-c1cc(NC(=O)OCc2ccc3c(c2)nc2n3CCOC2)n(C)n1` [Example 9-243], the minimal effective concentration was 0.1 µM.
`CCn1cc2cc(COC(=O)Nc3sc(-c4ccc(F)cc4OC)nc3C)ccc2n1` [Example 9-153]: the minimal effective concentration stood at 0.025 µM.
In the case of `CCCOc1ccccc1-c1nc(C)c(C(=O)N/N=C/c2ccc(OC)c(O)c2)s1` [Example 23-48] it was 0.1 µM; in that of `CCc1nc(-c2ccc(F)cc2C)sc1NC(=O)OCc1ccc2c(c1)ncn2C` [Example 9-163], 0.025 µM.
The same measure for `CCn1cnc2cc(NC(=O)OCc3cc(-c4ccccc4OC)nn3C)ccc21` [Example 13-78]: 0.1 µM; for `COc1cc(Cl)ccc1-c1cc(COC(=O)Nc2ccc3c(c2)ncn3C)sn1` [Example 47-4]: 0.00625 µM; for `Cc1nc(-c2sccc2Cl)sc1COC(=O)Nc1ccc2c(c1)nc1n2CCOC1` [Example 13-61]: 10 µM.
The same measure for `COc1cc(Cl)ccc1-c1nc(C)c(NC(=O)OCc2ccc3c(c2)nc2n3CCC(O)C2)s1` (stereo not drawn) [Example 9-343]: 0.1 µM.
Regarding `Cc1nc(-c2ccccc2)sc1NC(=O)OCc1ccc2c(c1)ncn2C` [Example 9-32], the minimal effective concentration was 1 µM.
Turning to `O=C(N/N=C/c1ccc(O)c(Cl)c1)c1cc(-c2ccc(Cl)cc2Cl)n[nH]1` [Example 21-13], the minimal effective concentration is 10 µM.
In the case of `Cc1cc(F)ccc1-c1nc(C)c(NC(=O)OCc2ccc3c(c2)ncn3C)s1` [Example 9-48] it was 0.00625 µM.
In the case of `CCn1c(C)nc2cc(COC(=O)Nc3sc(-c4ccc(C)cc4C)nc3C)ccc21` [Example 9-88] it was 0.1 µM; in that of `Cc1ccc(-c2cc(NC(=O)OC(C)c3ccc4c(c3)ncn4C)n(C)n2)c(C)c1` (stereo not drawn) [Example 9-339], 10 µM.
The same measure for `Cc1ccc(-c2nc(C)c(COC(=O)Nc3ccc4ncsc4c3)s2)c(C)c1` [Example 41-1, Benzothiazol-6-ylcarbamic acid 2-(2,4-dimethylphenyl)-4-methylthiazol-5-ylmethyl ester]: 10 µM.
Turning to `Cc1cc(/C=N/NC(=O)c2sc(C3CCCCC3)nc2C)cc(C)c1O` [Example 23-129], the minimal effective concentration worked out at 10 µM.
Take `COc1ccccc1-c1ncc(COC(=O)Nc2ccc3c(c2)ncn3C)s1` [Example 13-66]: the minimal effective concentration was 10 µM.
The same measure for `COc1cc(Cl)ccc1-c1nc(C)c(NC(=O)OCc2ccc3c(c2)nc2n3CCSC2)s1` [Example 40-1, [2-(4-Chloro-2-methoxyphenyl)-4-methylthiazol-5-yl]carbamic acid 3,4-dihydro-1H-2-thia-4a,9-diazafluoren-7-ylmethyl ester]: 0.025 µM; for `COc1ccc(/C=N/NC(=O)c2sc(-c3ccccc3C(F)(F)F)nc2C)cc1O` [Example 23-13]: 1 µM.
